Where a SMILES comes first, the peptide text is derived from it. Where no end group is shown, it is not given here.

These results are taken from US12240816B2, “Deuterated compounds and uses thereof” (Aldeyra Therapeutics, Inc., priority 2015, dated 2025).

Common to all, as to assay: biochemical
Common to all, as to type: biochemical

In test [1] the target is enzyme and uptake assay panel targets (Table 36) (Homo sapiens, UniProt O00408). The note with it: PDE2A1 (h); reference compound.
Test [2] addresses enzyme and uptake assay panel targets (Table 36) (Homo sapiens, UniProt P42574).
The target in test [3] is enzyme and uptake assay panel targets (Table 36) (Homo sapiens, UniProt Q9BYF1). The note with it: ACE-2 (h); reference compound.
enzyme and uptake assay panel targets (Table 36) (Homo sapiens, UniProt Q9BYF1), sequence (Q9BYF1 18-805): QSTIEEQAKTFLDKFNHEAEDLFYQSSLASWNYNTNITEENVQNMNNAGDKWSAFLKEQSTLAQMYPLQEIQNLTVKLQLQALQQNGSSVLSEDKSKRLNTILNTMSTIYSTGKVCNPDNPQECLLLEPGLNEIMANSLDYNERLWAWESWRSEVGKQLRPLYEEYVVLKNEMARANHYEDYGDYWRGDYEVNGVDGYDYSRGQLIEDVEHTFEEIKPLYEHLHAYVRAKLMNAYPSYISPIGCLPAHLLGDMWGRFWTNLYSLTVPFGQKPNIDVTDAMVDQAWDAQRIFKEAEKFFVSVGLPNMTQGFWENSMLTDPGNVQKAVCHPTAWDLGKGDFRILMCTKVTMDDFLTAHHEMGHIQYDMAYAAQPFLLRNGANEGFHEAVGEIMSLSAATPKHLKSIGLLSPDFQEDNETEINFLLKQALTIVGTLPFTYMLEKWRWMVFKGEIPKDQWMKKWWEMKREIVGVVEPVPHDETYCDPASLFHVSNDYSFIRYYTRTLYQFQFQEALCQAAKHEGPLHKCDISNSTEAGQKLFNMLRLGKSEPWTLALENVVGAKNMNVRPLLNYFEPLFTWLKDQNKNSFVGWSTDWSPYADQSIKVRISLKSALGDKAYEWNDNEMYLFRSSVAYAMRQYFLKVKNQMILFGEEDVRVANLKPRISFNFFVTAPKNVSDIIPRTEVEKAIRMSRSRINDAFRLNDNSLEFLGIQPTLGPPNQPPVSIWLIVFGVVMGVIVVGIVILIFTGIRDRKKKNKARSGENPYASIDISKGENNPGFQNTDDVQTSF
The target of test [4] is enzyme and uptake assay panel targets (Table 36) (Homo sapiens, UniProt Q14790). The note with it: caspase-8 (h); reference compound.
enzyme and uptake assay panel targets (Table 36) (Homo sapiens, UniProt Q14790), sequence (Q14790 217-479): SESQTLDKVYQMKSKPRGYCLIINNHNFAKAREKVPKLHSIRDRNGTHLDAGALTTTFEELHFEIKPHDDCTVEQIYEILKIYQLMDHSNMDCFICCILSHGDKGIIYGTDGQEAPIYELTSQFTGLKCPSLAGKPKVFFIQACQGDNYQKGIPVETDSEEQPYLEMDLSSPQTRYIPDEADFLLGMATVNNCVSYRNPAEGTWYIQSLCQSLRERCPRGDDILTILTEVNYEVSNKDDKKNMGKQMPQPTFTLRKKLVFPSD
In test [5] the target is enzyme and uptake assay panel targets (Table 36) (Mus musculus, UniProt P29477). The note with it: inducible NOS; reference compound.
enzyme and uptake assay panel targets (Table 36) (Mus musculus, UniProt P29477), sequence (P29477 whole entry): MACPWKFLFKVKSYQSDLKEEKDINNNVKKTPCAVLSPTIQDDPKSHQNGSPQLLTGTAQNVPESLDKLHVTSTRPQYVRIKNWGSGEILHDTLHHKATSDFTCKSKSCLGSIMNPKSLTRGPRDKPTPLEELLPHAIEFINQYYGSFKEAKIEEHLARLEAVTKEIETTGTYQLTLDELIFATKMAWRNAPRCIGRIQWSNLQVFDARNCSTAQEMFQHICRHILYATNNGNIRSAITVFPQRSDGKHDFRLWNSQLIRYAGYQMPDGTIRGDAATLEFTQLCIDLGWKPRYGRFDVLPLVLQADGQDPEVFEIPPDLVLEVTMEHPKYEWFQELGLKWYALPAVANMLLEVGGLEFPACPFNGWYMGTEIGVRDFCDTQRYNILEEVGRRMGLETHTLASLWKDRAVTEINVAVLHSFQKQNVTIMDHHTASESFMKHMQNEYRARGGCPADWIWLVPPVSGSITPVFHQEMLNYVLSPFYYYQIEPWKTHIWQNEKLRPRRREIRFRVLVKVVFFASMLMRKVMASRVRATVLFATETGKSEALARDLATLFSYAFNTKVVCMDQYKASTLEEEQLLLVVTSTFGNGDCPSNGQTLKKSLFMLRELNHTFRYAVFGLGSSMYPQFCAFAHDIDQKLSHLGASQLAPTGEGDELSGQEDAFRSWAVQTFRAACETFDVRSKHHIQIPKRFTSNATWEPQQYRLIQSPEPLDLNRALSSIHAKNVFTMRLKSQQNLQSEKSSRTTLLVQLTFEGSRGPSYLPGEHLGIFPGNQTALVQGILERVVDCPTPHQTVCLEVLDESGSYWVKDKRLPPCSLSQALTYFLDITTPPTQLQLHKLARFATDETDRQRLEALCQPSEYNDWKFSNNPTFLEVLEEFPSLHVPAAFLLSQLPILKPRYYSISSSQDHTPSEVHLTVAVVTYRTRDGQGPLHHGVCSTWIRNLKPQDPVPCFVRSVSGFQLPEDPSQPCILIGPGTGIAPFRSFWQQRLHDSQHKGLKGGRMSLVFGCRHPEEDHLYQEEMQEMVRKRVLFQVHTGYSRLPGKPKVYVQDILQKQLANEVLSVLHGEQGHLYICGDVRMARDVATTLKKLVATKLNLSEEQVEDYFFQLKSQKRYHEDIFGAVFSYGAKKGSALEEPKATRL
The target of test [6] is enzyme and uptake assay panel targets (Table 36) (Homo sapiens, UniProt P14780).
In test [7] the target is enzyme and uptake assay panel targets (Table 36) (Homo sapiens, UniProt P03956).
enzyme and uptake assay panel targets (Table 36) (Homo sapiens, UniProt P03956), sequence (P03956 100-469): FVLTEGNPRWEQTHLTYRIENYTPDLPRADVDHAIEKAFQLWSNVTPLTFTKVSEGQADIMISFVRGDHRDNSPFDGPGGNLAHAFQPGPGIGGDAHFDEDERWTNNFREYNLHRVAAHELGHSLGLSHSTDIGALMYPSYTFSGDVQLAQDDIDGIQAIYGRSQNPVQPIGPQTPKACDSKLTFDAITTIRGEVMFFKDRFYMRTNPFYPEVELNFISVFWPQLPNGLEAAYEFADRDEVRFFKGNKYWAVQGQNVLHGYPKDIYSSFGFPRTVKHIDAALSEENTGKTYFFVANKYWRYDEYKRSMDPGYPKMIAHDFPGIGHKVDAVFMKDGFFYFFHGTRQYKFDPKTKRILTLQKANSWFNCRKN
The target of test [8] is enzyme and uptake assay panel targets (Table 36) (Homo sapiens, UniProt P08253).
In test [9] the target is enzyme and uptake assay panel targets (Table 36) (Homo sapiens, UniProt P18054).
In test [10] the target is enzyme and uptake assay panel targets (Table 36) (Homo sapiens, UniProt P09917).
enzyme and uptake assay panel targets (Table 36) (Homo sapiens, UniProt P09917), sequence (P09917 whole entry): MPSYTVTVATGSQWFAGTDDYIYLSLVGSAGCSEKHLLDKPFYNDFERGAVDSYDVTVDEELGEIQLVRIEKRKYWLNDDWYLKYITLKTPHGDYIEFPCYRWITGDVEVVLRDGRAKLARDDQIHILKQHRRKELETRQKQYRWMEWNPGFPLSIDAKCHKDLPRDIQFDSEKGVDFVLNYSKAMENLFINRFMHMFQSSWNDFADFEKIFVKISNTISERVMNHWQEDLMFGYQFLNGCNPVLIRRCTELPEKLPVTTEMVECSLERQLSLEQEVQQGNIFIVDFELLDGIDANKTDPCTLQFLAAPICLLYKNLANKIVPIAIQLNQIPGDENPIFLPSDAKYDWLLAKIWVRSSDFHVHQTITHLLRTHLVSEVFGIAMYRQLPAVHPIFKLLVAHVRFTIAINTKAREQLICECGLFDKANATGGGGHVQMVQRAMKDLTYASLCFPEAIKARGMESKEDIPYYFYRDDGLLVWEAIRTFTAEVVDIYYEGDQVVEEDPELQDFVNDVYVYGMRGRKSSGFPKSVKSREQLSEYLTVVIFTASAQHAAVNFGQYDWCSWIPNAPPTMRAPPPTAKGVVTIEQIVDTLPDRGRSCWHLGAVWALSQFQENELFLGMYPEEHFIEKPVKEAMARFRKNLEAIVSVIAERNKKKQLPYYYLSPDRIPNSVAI
Test [11] addresses enzyme and uptake assay panel targets (Table 36) (Homo sapiens, UniProt P06241). The note with it: Fyn kinase (h); reference compound.
Test [12] deals with enzyme and uptake assay panel targets (Table 36) (Homo sapiens, UniProt P08473). The note with it: Peptidase, Metalloproteinase, Neutral Endopeptidase; reference compound.
enzyme and uptake assay panel targets (Table 36) (Homo sapiens, UniProt P08473), sequence (P08473 whole entry): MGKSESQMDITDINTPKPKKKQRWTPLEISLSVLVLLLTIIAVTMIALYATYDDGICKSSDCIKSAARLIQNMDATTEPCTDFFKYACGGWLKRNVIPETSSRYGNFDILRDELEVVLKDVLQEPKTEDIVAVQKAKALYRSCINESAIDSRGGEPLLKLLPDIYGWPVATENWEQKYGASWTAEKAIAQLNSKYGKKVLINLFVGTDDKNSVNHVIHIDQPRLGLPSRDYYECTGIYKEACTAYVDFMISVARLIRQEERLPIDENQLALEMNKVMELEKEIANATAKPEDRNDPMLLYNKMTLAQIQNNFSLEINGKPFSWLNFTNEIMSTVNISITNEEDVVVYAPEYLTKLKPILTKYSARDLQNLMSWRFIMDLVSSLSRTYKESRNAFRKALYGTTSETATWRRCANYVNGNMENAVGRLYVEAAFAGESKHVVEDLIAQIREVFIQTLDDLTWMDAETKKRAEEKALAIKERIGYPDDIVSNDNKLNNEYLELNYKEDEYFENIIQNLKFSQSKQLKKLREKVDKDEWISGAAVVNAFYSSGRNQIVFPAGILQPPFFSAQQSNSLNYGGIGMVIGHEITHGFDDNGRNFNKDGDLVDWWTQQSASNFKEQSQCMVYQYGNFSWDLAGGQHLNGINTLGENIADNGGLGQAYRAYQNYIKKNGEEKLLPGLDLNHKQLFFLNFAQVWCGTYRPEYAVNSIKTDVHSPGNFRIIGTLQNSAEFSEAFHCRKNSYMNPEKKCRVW
Test [13] deals with enzyme and uptake assay panel targets (Table 36). The note with it: COMT (catechol-O-methyl transferase); reference compound.
For test [14], the target named is T1, enzyme and uptake assay panel targets (Table 36) (Bos taurus, UniProt P80457).
T1 construct: other: xanthine oxidase/superoxide 02^−scavenging; nH; other: xanthine oxldase/superoxide 02 ^−scavenging; 1.0E−05M; ot; purified xanthine oxidase from bovine milk

The target in test [15] is enzyme and uptake assay panel targets (Table 36) (Homo sapiens, UniProt O76074). The note with it: PDE5 (h) (non-selective); reference compound.
Test [16] deals with enzyme and uptake assay panel targets (Table 36) (Homo sapiens, UniProt Q13370). The note with it: PDE3B (h); reference compound.
Test [17] has as its target T2, enzyme and uptake assay panel targets (Table 36).
T2 construct: other: ATPase (Na+/K+); 1.0E−05M; nH; porcine cerebral cortex
Conditions: ATPase (Na+/K+); reference compound.

Test [18] has as its target T3, enzyme and uptake assay panel targets (Table 36) (Bos taurus, UniProt P11541+P23439).
T3 construct: other: PDE6 (non-selective); 1.0E−05M; nH; bovine retina
Conditions: PDE6 (non-selective); reference compound.

Test [19] deals with enzyme and uptake assay panel targets (Table 36) (Homo sapiens, UniProt Q9UQM7). The note with it: CaMK2α (h); reference compound.

enzyme and uptake assay panel targets (Table 36) (Homo sapiens, UniProt O00408), sequence (O00408 whole entry): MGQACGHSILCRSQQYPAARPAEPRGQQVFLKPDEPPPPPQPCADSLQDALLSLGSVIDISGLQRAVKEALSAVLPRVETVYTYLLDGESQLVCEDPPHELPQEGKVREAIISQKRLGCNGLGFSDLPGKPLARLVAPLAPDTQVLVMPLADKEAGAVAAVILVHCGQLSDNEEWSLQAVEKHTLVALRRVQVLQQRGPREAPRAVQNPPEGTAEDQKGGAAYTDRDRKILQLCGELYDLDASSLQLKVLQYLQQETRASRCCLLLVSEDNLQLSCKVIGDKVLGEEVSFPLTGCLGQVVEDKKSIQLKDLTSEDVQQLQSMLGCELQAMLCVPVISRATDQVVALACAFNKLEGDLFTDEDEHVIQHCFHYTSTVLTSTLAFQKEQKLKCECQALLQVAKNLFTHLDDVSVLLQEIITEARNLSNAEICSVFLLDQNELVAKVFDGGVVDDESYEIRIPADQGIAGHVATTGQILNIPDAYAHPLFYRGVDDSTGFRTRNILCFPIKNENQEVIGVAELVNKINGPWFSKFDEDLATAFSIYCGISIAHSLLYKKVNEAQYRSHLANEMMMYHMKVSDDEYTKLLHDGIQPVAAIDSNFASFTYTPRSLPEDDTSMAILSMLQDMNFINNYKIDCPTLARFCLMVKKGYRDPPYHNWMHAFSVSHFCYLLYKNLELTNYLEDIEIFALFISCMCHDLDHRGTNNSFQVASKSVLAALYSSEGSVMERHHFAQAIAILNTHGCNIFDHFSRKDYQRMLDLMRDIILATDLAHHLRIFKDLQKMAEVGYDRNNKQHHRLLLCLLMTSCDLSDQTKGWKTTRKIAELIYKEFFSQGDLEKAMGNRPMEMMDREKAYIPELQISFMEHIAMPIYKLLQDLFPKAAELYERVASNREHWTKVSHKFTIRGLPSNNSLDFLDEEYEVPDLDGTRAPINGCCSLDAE

As for `CCCCCC[C@@H]([C@@H](C)O)n1cnc2c(N)ncnc21` (racemic) [EHNA], in test [1], the IC50 is 1.1 µM and the nH is 0.8. Take `CC(=O)N[C@@H](CC(=O)O)C(=O)N[C@@H](CCC(=O)O)C(=O)N[C@H](C(=O)N[C@H](C=O)CC(=O)O)C(C)C` [Ac-DEVD-CHO]: the nH in test [2] amounted to 1.1. With `CC(=O)NCC(=O)N[C@@H](CC(=O)O)C(=O)N[C@@H](Cc1ccc(O)cc1)C(=O)N[C@@H](CO)C(=O)N[C@@H](Cc1c[nH]cn1)C(=O)N[C@H]1CSSC[C@@H](C(=O)N[C@H](C(=O)N[C@@H](Cc2ccc(O)cc2)C(=O)N2CCC[C@H]2C(=O)N[C@@H](CC(=O)O)C(=O)N2CCC[C@H]2C(=O)N[C@@H](CCC(=O)O)C(=O)NCC(=O)NCC(=O)NCC(N)=O)[C@@H](C)O)NC(=O)[C@H](CCCCN)NC(=O)[C@H](Cc2c[nH]c3ccccc23)NC(=O)[C@H](Cc2c[nH]c3ccccc23)NC(=O)[C@@H]2CCCN2C(=O)[C@H](Cc2ccc(O)cc2)NC(=O)[C@H](Cc2ccc(O)cc2)NC(=O)[C@H](CCCNC(=N)N)NC(=O)[C@H](CC(C)C)NC(=O)[C@@H]2CCCN2C(=O)[C@H](CO)NC1=O` [Ac-GG-26-NH2], in test [3], the “IC50” value came out at 0.29 µM and the nH came out at 2.4. For the compound `CC[C@H](C)[C@H](NC(C)=O)C(=O)N[C@@H](CCC(=O)O)C(=O)N[C@H](C(=O)N[C@H](C=O)CC(=O)O)[C@@H](C)O` [Ac-IETD-CHO] (Ac-IETD-aldehyde), in test [4], the “IC50” value is 0.028 µM and the nH is 0.8. For `CC(=N)NCc1cccc(CN)c1` [Compound 1400W], in test [5], the IC50 came out at 0.04 µM and the nH was 1.4. In the case of `CNC(=O)[C@H](Cc1c[nH]c2ccccc12)NC(=O)[C@@H](CC(=O)NO)CC(C)C` [GM6001], the values for the nH in test [6], in test [7] and in test [8] were 0.9, 1.3 and 1.3, respectively.

As for `CC(Cc1ccc(O)c(O)c1)C(C)Cc1ccc(O)c(O)c1` (stereo not drawn) [NDGA], the nH is given as 1.2 in test [9] and 1.6 in [10].

For the compound `Cc1ccc(-c2nn(C(C)(C)C)c3ncnc(N)c23)cc1` [PP1], in test [11], the nH is on record as greater than 3.

As to `CC(C)C[C@H](NP(=O)(O)O[C@@H]1O[C@@H](C)[C@H](O)[C@@H](O)[C@H]1O)C(=O)N[C@@H](Cc1c[nH]c2ccccc12)C(=O)O` [Phosphoramidon], in test [12], the “IC50” value is 0.016 µM and the nH is 0.9.

On to `O=C(c1cc(O)c(O)c([N+](=O)[O-])c1)c1ccccc1F` [Ro 41-0960], for which the IC50 in [13] worked out at 0.03 µM. `Oc1ncnc2[nH]ncc12` [allopurinol] came in with a nH in test [14] of 1.3.

`OCCN(CCO)c1nc(N2CCCCC2)c2nc(N(CCO)CCO)nc(N3CCCCC3)c2n1` [dipyridamole] displayed a nH in test [15] of 1.1. Regarding `Cc1[nH]c(=O)c(C#N)cc1-c1ccncc1` [milrinone], the nH in test [16] was 0.9.

With `C[C@@H]1O[C@@H](O[C@H]2C[C@@H](O)[C@]3(CO)[C@H]4[C@H](O)C[C@]5(C)[C@@H](C6=CC(=O)OC6)CC[C@]5(O)[C@@H]4CC[C@]3(O)C2)[C@H](O)[C@H](O)[C@H]1O` [ouabain], half-maximal inhibition in test [17] (IC50) was put at 1 µM. In other words, the single-digit micromolar range. `CCCOc1ccccc1-c1nc2nn[nH]c2c(=O)[nH]1` [zaprinast] registered a nH in test [18] of 1.0.

KKALRRQEAVDAL [AIP]: the “IC50” value in test [19] came out at 0.26 µM. In other words, the sub-micromolar range.

A word on the IC50: it is the point on the concentration scale where inhibition reaches its midpoint. The low end stands for higher potency, the high end for lower potency.
